# In PubChem BioAssay (NCI):
#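 GI50: concentration for 50% inhibition of growth. TGI is the concentration that stops growth completely.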
# Key:
# Assay in all cases: growth of human tumour cells (NCI), 384-well format
# 786-0 renal = test system: 786-0 renal
# A498 renal = test system: A498 renal
# A549 NSCLC = test system: A549 NSCLC
# ACHN renal = test system: ACHN renal
# CAKI-1 renal = test system: CAKI-1 renal
# DU-145 prostate = test system: DU-145 prostate
# EKVX NSCLC = test system: EKVX NSCLC
# HCC-2998 colon = test system: HCC-2998 colon
# HCT-15 colon = test system: HCT-15 colon
# HOP-92 NSCLC = test system: HOP-92 NSCLC
# IGROV1 ovarian = test system: IGROV1 ovarian
# KM12 colon = test system: KM12 colon
# LOX IMVI melanoma = test system: LOX IMVI melanoma
# M14 melanoma = test system: M14 melanoma
# MALME-3M melanoma = test system: MALME-3M melanoma
# MCF7 breast = test system: MCF7 breast
# NCI-H226 lung = test system: NCI-H226 lung
# NCI-H322M lung = test system: NCI-H322M lung
# NCI/ADR-RES ovarian = test system: NCI/ADR-RES ovarian
# OVCAR-4 ovarian = test system: OVCAR-4 ovarian
# OVCAR-5 ovarian = test system: OVCAR-5 ovarian
# SF-268 CNS = test system: SF-268 CNS
# SF-539 CNS = test system: SF-539 CNS
# SK-OV-3 ovarian = test system: SK-OV-3 ovarian
# SN12C renal = test system: SN12C renal
# SNB-19 CNS = test system: SNB-19 CNS
# T-47D breast = test system: T-47D breast
# TK-10 renal = test system: TK-10 renal
# UACC-257 melanoma = test system: UACC-257 melanoma
# UO-31 renal = test system: UO-31 renal
structure (smiles),measurement,setting,value
C/C(=C\c1csc(C)n1)[C@@H]1C[C@@H]2O[C@]2(C)CCC[C@H](C)[C@H](O)[C@@H](C)C(=O)C(C)(C)[C@@H](O)CC(=O)N1,TGI,786-0 renal,87.1 nM
same,TGI,A498 renal,> 100000 nM
same,TGI,A549 NSCLC,> 100000 nM
same,GI50,ACHN renal,40.3 nM
same,TGI,ACHN renal,> 100000 nM
same,TGI,CAKI-1 renal,> 100000 nM
same,TGI,DU-145 prostate,10.7 nM
same,GI50,EKVX NSCLC,24 nM
same,TGI,EKVX NSCLC,> 100000 nM
same,TGI,HCC-2998 colon,12.3 nM
same,GI50,HCT-15 colon,14.1 nM
same,TGI,HCT-15 colon,384 nM
same,TGI,HOP-92 NSCLC,> 100000 nM
same,GI50,IGROV1 ovarian,27.6 nM
same,TGI,IGROV1 ovarian,> 100000 nM
same,TGI,KM12 colon,> 100000 nM
same,TGI,LOX IMVI melanoma,> 100000 nM
same,TGI,M14 melanoma,10.3 nM
same,TGI,MALME-3M melanoma,> 100000 nM
same,TGI,MCF7 breast,> 100000 nM
same,TGI,NCI-H226 lung,> 100000 nM
same,GI50,NCI-H322M lung,10.7 nM
same,TGI,NCI-H322M lung,> 100000 nM
same,GI50,NCI/ADR-RES ovarian,437 nM
same,TGI,NCI/ADR-RES ovarian,1910 nM
same,TGI,OVCAR-4 ovarian,> 100000 nM
same,TGI,OVCAR-5 ovarian,> 100000 nM
same,TGI,SF-268 CNS,> 100000 nM
same,TGI,SF-539 CNS,13.5 nM
same,TGI,SK-OV-3 ovarian,> 100000 nM
same,TGI,SN12C renal,> 100000 nM
same,GI50,SNB-19 CNS,15.7 nM
same,TGI,SNB-19 CNS,> 100000 nM
same,TGI,T-47D breast,> 100000 nM
same,GI50,TK-10 renal,55.2 nM
same,TGI,TK-10 renal,> 100000 nM
same,TGI,UACC-257 melanoma,> 100000 nM
same,GI50,UO-31 renal,60.5 nM
same,TGI,UO-31 renal,> 100000 nM
